In patent publication US10183954B2, “Oxathiolane carboxylic acids and derivatives for the treatment and prophylaxis of virus infection” (Hoffmann-La Roche Inc., priority 2016, dated 2019):
pEC50: −log10 of the molar value.

target: human TLR7 (Homo sapiens (Human), UniProt Q9NYK1); experiment: HEK293-Blue-hTLR-7 cells assay (SEAP reporter); assay type: cell-based; details: 20 hours incubation
Source text: HEK293-Blue-hTLR-7 Cells Assay: A stable HEK293-Blue-hTLR-7 cell line was purchased from InvivoGen (Cat.#: hkb-htlr7, San Diego, Calif., USA). These cells were designed for studying the stimulation of human TLR7 by monitoring the activation of NF-κB. A SEAP (secreted embryonic alkaline phosphatase) reporter gene was placed under the control of the […] minimal promoter fused to five NF-κB and AP-1-binding sites. The SEAP was induced by activating NF-κB and AP-1 via stimulating HEK-Blue hTLR7 cells with TLR7 ligands. Therefore the reporter expression was regulated by the NF-κB promoter upon stimulation of human TLR7. The cell culture supernatant SEAP reporter activity was determined using QUANTI-Blue™ kit (Cat.#: rep-qb 1, Invivogen, San Diego, Ca, USA) at a wavelength of 640 nm, a detection medium that turns purple to blue in the presence of alkaline phosphatase. HEK293-Blue-hTLR7 cells were incubated at a density of 250,000˜450,000 cells/mL in a volume of 180 μL in a 96-well plate in Dulbecco's Modified Eagle's medium (DMEM) containing 4.5 g/l glucose, 50 U/ml penicillin, […], […], 2 mM L-glutamine, 10% (v/v) heat-inactivated fetal bovine serum for 24 h. Then the HEK293-Blue-hTLR-7 cells were incubated with addition of 20 μL test compound in a serial dilution in the presence of final DMSO at 1% and perform incubation under 37° C. in a CO2 incubator for 20 hours. Then 20 μL of the supernatant from each well was incubated with 180 μL Quanti-blue substrate solution at 37° C. for 1-3 hours and the absorbance was read at 620˜655 nm using a spectrophotometer.

Sequence of human TLR7 (Q9NYK1 27-1049): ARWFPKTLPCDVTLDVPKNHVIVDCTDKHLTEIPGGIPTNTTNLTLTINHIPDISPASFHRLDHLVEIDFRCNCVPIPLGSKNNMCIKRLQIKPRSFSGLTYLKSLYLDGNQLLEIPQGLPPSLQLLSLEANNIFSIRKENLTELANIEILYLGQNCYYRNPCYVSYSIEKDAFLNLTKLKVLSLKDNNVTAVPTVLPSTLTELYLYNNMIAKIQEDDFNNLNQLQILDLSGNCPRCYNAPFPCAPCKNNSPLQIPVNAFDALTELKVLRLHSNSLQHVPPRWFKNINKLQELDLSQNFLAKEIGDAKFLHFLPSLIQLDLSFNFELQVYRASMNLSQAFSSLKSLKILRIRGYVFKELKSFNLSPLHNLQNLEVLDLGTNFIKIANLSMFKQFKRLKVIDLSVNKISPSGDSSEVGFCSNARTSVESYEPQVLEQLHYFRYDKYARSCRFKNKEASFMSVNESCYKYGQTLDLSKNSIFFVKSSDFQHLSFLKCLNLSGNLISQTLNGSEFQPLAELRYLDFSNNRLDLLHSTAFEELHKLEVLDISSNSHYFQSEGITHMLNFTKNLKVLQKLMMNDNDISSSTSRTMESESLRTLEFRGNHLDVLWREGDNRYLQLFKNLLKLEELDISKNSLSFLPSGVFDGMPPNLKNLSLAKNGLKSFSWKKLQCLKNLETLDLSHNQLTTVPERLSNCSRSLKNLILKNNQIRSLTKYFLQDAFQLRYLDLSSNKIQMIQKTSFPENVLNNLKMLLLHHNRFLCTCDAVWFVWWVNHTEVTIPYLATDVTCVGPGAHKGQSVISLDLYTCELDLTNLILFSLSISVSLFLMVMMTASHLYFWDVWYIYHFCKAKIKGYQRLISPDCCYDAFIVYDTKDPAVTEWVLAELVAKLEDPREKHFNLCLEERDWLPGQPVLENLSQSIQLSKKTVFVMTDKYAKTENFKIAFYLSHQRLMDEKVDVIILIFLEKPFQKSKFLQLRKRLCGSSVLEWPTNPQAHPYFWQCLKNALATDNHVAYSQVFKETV

pEC50 | Compound
3.84 | Nc1nc2c(sc(=O)n2[C@@H]2O[C@H](CO)S[C@H]2CC(=O)O)c(=O)[nH]1 (relative stereo) [Example 2-P1, 2-[(trans-2,4-trans-4,5)-5-(5-amino-2,7-dioxo-6H-thiazolo[4,5-d]pyrimidin-3-yl)-2-(hydroxymethyl)-1,3-oxathiolan-4-yl]acetic acid]
4.66 | COC(=O)CC1SC([C@H](C)O)OC1n1c(=O)sc2c(=O)[nH]c(N)nc21 (single isomer, unassigned) [Example 9-P3]
4.64 | C[C@H](O)C1OC(n2c(=O)sc3c(=O)[nH]c(N)nc32)C(CC(=O)O)S1 (single isomer, unassigned) [Example 10-P3]
3.49 | CCCC[C@H](O)C1OC(n2c(=O)sc3c(=O)[nH]c(N)nc32)C(CC(=O)O)S1 (single isomer, unassigned) [Example 11-P3]
4.38 | C=CC[C@H](O)C1OC(n2c(=O)sc3c(=O)[nH]c(N)nc32)C(CC(=O)O)S1 (single isomer, unassigned) [Example 12-P3]
4.82 | COC(=O)CC1SC([C@@H](O)C2CC2)OC1n1c(=O)sc2c(=O)[nH]c(N)nc21 (single isomer, unassigned) [Example 13-P3]
5.00 | Nc1nc2c(sc(=O)n2C2OC([C@@H](O)C3CC3)SC2CC(=O)O)c(=O)[nH]1 (single isomer, unassigned) [Example 14-P3]
3.50 | COC(=O)CC1SC(CO)OC1n1c(=O)sc2c(=O)[nH]c(N)nc21 (stereo not drawn) [Example 1-P1, methyl 2-[(trans-2,4-trans-4,5)-5-(5-amino-2,7-dioxo-6H-thiazolo[4,5-d]pyrimidin-3-yl)-2-hydroxymethyl)-1,3-oxathiolan-4-yl]acetate]
3.33 | CN(C)C(=O)CC1SC(CO)OC1n1c(=O)sc2c(=O)[nH]c(N)nc21 (stereo not drawn) [Example 3-P1, 2-[(trans-2,4-trans-4,5)-5-(5-amino-2,7-dioxo-6H-thiazolo[4,5-d]pyrimidin-3-yl)-2-(hydroxymethyl)-1,3-oxathiolan-4-yl]-N,N-dimethyl-acetamide]
4.89 | CC[C@H](O)[C@H]1O[C@@H](n2c(=O)sc3c(=O)[nH]c(N)nc32)[C@H](CC(=O)OC)S1 [Example 4-P1, methyl 2-[(2S,4S,5R)-5-(5-amino-2,7-dioxo-6H-thiazolo[4,5-d]pyrimidin-3-yl)-2-[(1S)-1-hydroxypropyl]-1,3-oxathiolan-4-yl]acetate]
4.62 | CC[C@H](O)[C@H]1O[C@@H](n2c(=O)sc3c(=O)[nH]c(N)nc32)[C@H](CC(=O)O)S1 [Example 5-P1, 2-[(2S,4S,5R)-5-(5-amino-2,7-dioxo-6H-thiazolo[4,5-d]pyrimidin-3-yl)-2-[(1S)-1-hydroxypropyl]-1,3-oxathiolan-4-yl]acetic acid]
4.64 | CC[C@H](O)[C@H]1O[C@@H](n2c(=O)sc3c(=O)[nH]c(N)nc32)[C@H](CC(=O)NC)S1 [Example 6-P1, 2-[(2S,4S,5R)-5-(5-amino-2,7-dioxo-6H-thiazolo[4,5-d]pyrimidin-3-yl)-2-[(1S)-1-hydroxypropyl]-1,3-oxathiolan-4-yl]-N-methyl-acetamide]
4.55 | CC[C@H](O)[C@H]1O[C@@H](n2c(=O)sc3c(=O)[nH]c(N)nc32)[C@H](CC(=O)N(C)C)S1 [Example 7-P1, 2-[(2S,4S,5R)-5-(5-amino-2,7-dioxo-6H-thiazolo[4,5-d]pyrimidin-3-yl)-2-[(1S)-1-hydroxypropyl]-1,3-oxathiolan-4-yl]-N,N-dimethyl-acetamide]
5.60 | CC[C@H](O)[C@H]1O[C@@H](n2c(=O)sc3c(=O)[nH]c(N)nc32)[C@H](CC(=O)N2CCOCC2)S1 [Example 8-P1, 5-amino-3-[(2S,4S,5R)-2-[(1S)-1-hydroxypropyl]-4-(2-morpholino-2-oxo-ethyl)-1,3-oxathiolan-5-yl]-6H-thiazolo[4,5-d]pyrimidine-2,7-dione]

test system: human hepatocytes; experiment: Metabolic conversion of prodrugs in human hepatocytes; assay type: in vitro ADME; details: not given
Source text: Metabolism of Prodrugs: Compounds of Formula (II) A study was undertaken to evaluate the metabolic conversion of prodrugs, compounds of formula (II) or (IIa), to compounds of formula (I) or (Ia) of the present invention. The prodrugs, compounds of formula (II) or (IIa), can be metabolized to the active compound of formula (I) or (Ia) and other compounds of the invention in the body if they are served as prodrugs. Hepatocytes are often used to assess the degree of metabolic conversion of prodrugs in the body of animal or human. A study was undertaken to evaluate the metabolic conversion of prodrug Example 15, to the corresponding active form, Example 5-P1, in the presence of human hepatocytes. The formation of active form, Example 5-P1, was monitored in the study. For comparison, the metabolic conversion of famciclovir to penciclovir was also assessed. Cryopreserved hepatocytes plating medium (Cat.#: PY-HMD-03) was purchased from RILD Research Institute for Liver Diseases (Shanghai) Co. Ltd. Cryopreserved human hepatocyte (Cat.#: X008005, Lot#:VRR) was purchased from BioreclamationIVT (Baltimore, Md.). The stock hepatocyte suspension was prepared from cryopreserved hepatocytes in plating medium at the concentration of 1.8×10^6 cells/mL. […] The compounds were quantified on an API5500 […] instrument in the ESI-Positive MRM mode.

Compound | Metabolic conversion of prodrug to active metabolite
CC[C@H](OC(=O)c1ccccc1)[C@H]1O[C@@H](n2c(=O)sc3cnc(N)nc32)[C@H](CC(=O)OC)S1 [Example 15, [(1S)-1-[(2S,4S,5R)-5-(5-amino-2-oxo-thiazolo[4,5-d]pyrimidin-3-yl)-4-(2-methoxy-2-oxo-ethyl)-1,3-oxathiolan-2-yl]propyl]benzoate] | metabolized to yield the corresponding active metabolites
CC(=O)OCC(CCn1cnc2cnc(N)nc21)COC(C)=O [Famciclovir, famciclovir, reference compound] | metabolized to yield the corresponding active metabolites
